From patent US12377092B2, “Polycomb inhibitors and uses thereof” (FONDAZIONE ISTITUTO FIRC DI ONCOLOGIA MOLECOLARE (IFOM), priority 2017, dated 2025)
“Also recorded” adds a separate entry of the source. Read-outs that look alike come from different tables or passages of the source.

Key:
Assay type in all cases: cell-based, mouse
[1] = system: EndMT markers (Klf4, Sca1 and Fsp1); assay: Western blot analysis of EndMT markers, wild type and CCM3 knock out immortalized lung endothelial cells; conditions: 72 hours
Experimental: (§1) Cells were seeded 6.3×10^4 cells/cm^2. The day after, PTC209 and UNC1999 were added to the confluent cells. Drugs were left for one or three days depending on the aim of the experiment. Final concentrations used for the two drugs were: 1 uM PTC209 and 5 uM UNC1999.
Confluent cells were lysed with boiling modified Laemi sample Buffer (2% SDS, 20% glycerol, and 125 mM Tris-HCl, pH 6.8). Lysates were incubated for 10 minutes at 100° C. to allow proteins denaturation. Protein concentration was estimated using the BCA Protein Assay Kit (Pierce). Equal amount of proteins was loaded on a gel, separated by SDS-PAGE and transferred to a Protran Nitrocellulose Membrane (Whatman) 0.2 um pores. The membranes were blocked for 1 hour at RT in Tris Buffered Saline (TBS: NaCl 150 mM, Tris-HCl 10 mM pH 7.4) plus 0.1% Tween-20 containing 5% BSA or milk. The membranes were incubated with primary antibodies diluted in TBST (TBS plus 0.1% Tween-20) containing 5% of either BSA or milk overnight at 4° C. Next, membranes were rinsed three times with TBST for 5 minutes each and incubated for 45 minutes at RT with HRP-linked secondary antibodies diluted in TBST containing 5% BSA/milk. Membranes were rinsed three times with TBST for 5 minutes each and specific bindings were detected by enhanced chemiluminescence (ECL) system (Amersham Bioscience) using ChemiDoc XRS gel imaging system (Bio-Rad).
Wild type and CCM3 knock out cells were treated with either PTC209 or DMSO starting from the day after seeding, when cells were confluent. For this experiment cells were lysed for western blot and real-time analysis after 72 hours of treatment to check a long-term effect of PTC209.
To perform these experiments, immortalized lung endothelial cells both wild type and CCM3 knock out were treated, with the same experimental strategy used for PTC209, with UNC1999 for 72 hours and subsequently lysed for western blot and real time analysis. UNC1999 was used in its specific optimal concentration, which was different to PTC209. As control DMSO was given to the cells in a volume equal to the volume of DMSO in which UNC1999 was previously dissolved to rich the optimal concentration.
Briefly, wild type and CCM3 knock out cells were treated with either PTC209, UNC1999 or a combination of the two. PTC209 and UNC1999 were administrated at the same concentration used for the single treatment and DMSO was given as control in a volume equal to the sum of volumes of DMSO in which UNC1999 and PTC209 were previously dissolved.

[2] = system: EndMT markers (Klf4, Sca1 and Fsp1); conditions: 72 hours
Experimental: as §1
(§2) RNA extraction was performed both with (A) RNeasy kits (Promega) or (B) RNAeasy Mini Kit (QIAGEN). The latter allows also the extraction of proteins from the same sample. The RNA (500 ng) was reverse transcribed with random hexamers (High Capacity cDNA Archive kits; Applied Biosystems) in a final volume of 30 uL. Reaction were made with a thermocycler (Eppendorf) 10 min at 25° C. followed by 2 hours at 37° C. cDNA (5 ng) was amplified in triplicate in a reaction volume of 15 uL using TaqMan Gene Expression Assays (Applied Biosystems) in a ABI/Prism 7900 HT using a pre PCR step of 10 min at 95° C., followed by 40 cycles of 15 seconds at 95° C. and 60 seconds at 60° C. For each sample, the expression level was determined with the comparative threshold cycle (Ct) method, and normalized to the housekeeping genes encoding 18S, glyceraldehyde-3-phosphate dehydrogenase (GAPDH) and hypoxanthine-guanine phosphoribosyltransferase (hprt1). Ct or threshold cycle, represents the PCR cycle at which an increase in reporter fluorescence above a base-line signal can first be detect.

[3] = system: EndMT markers (Klf4, Sca1 and Fsp1); assay: Immunofluorescence analysis of EndMT markers, CCM1 knock out cells; conditions: CCM1 knockout cells; PTC209 vs DMSO
Experimental: Treatment with PTC209 was performed with the same experimental conditions used for CCM3 model. After treatment cells were analysed by western blot (FIG. 9), real time (FIG. 10) and immunofluorescence (FIG. 11) analysis. […] This observation resembled what was previously observed for human patients as well as for CCM3 mouse model, namely that mutation in Ccm3 led to a more severe phenotype, with higher risk of cerebral haemorrhage and more severe malformations, compare to patients with mutation in Ccm1 and Ccm2 (Denier et al., 2006).

[4] = system: Axin2, Serpin1, Id1, Hes1 and Dll4; assay: Real-time PCR of target genes of β-catenin, TGFβ and Delta-Notch pathways, wild type and CCM3 knock out cells; conditions: PTC209 72 hours
Experimental: as §2
To perform these experiments, wild type and CCM3 knock out cells were treated with PTC209 with the same experimental conditions described before, and subsequently lysed for gene expression analysis.
Axin2 was checked as evidence of β-catenin pathway activation (FIG. 25A), Serpin1 and Id1 for TGFβ signalling (FIG. 25B), while Hes1 and Dll4 for Notch pathway activation (FIG. 25C).

[5] = system: LEF1; assay: Immunofluorescence of LEF1, CCM3 knock out cells; conditions: PTC209 vs DMSO
Excerpt: The inventors started to analysed interaction between Bmi1 and β-catenin pathway. By immunofluorescence analysis on wild type and CCM3 knock out cells treated with PTC209 and DMSO as control, as already mentioned, the inventors checked expression of LEF1, a transcription factor that is directly activated by β-catenin and is responsible for transcriptional activation of Axin2 (Behrens et al., 1996), to see whether Bmi1 inhibition interfered with β-catenin pathway activation.

[6] = system: EndMT markers (Klf4, Sca1 and Fsp1); assay: RT-PCR of EndMT markers in wild type cells infected with lentivirus expressing LefΔN-β-catΔC; conditions: wild type cells infected with 40 ul LefΔN-β-catΔC lentivirus; PTC209 72 hours from nine days after infection
Experimental: as §2
One day before infection, 300.000 cells/well were seeded in a 6-wells plate in complete medium as described before.
The day after 40 uL per well of the concentrated virus was added to the cells medium and leaved overnight at 37° C. […]

[7] = CCM3 knock out cells (pathological conditions)
[8] = CCM3 knock out cells (pathological)
[9] = wild type cells (physiological)

Compound: COc1cc(Br)c(Nc2nc(-c3c(C)nc4ncccn34)cs2)c(Br)c1 [PTC209, N-(2,6-dibromo-4-methoxyphenyl)-4-(2-methylimidazo[1,2-a]pyrimidin-3-yl)thiazol-2-amine]
- Klf4 protein up-regulation induced by CCM3 deletion (western blot) ([1]; CCM3 knock out cells): completely rescued
- levels of Klf4 and Sca1 protein in treated CCM3 knock out cells versus wild type cells ([1]; CCM3 knock out cells, 1 uM PTC209): comparable with the levels expressed by wild type cells
- EndMT markers (Klf4, Sca1, Fsp1) protein expression (western blot) ([1]; CCM3 knock out cells, 1 uM PTC209, 5 uM UNC1999, vs DMSO): strongly downregulated; also recorded: inhibition of the upregulation
- Klf4 protein (western blot) ([1]; wild type cells (physiological condition), CCM3 model): not affected
- Klf4 transcript (real time analysis) ([2]; CCM1 knock out cells): downregulated
- Sca1 and Fsp1 transcripts (real time analysis) ([2]; CCM1 knock out cells): downregulated
- EndMT markers (Klf4, Sca1, Fsp1) transcript levels (real time analysis) ([2]; CCM1 knock out cells, vs DMSO): strong inhibition
- Klf4 transcript (real time analysis) ([2]; wild type cells (physiological condition), CCM1 model): not downregulated
- upregulation of Klf4, Sca1 and Fsp1 (relative fluorescence intensity) [3]: inhibited
- Hes1 transcript (Notch pathway) [4, 7]: downregulated
- Serpin1 transcript (TGFβ signalling) [4, 7]: upregulated
- Axin2 transcript (β-catenin pathway) [4, 8]: downregulation
- Id1 transcript (TGFβ signalling) [4, 8]: downregulation
- Axin2 transcript (β-catenin pathway) [4, 9]: downregulation
- Id1 transcript (TGFβ signalling) [4, 9]: downregulation
- LEF1 (immunofluorescence) [5]: reduced
- Sca1 and Fsp1 upregulation (RT-PCR) [6]: strongly reduced
